Test systems include A498; ACHN; CAKI-1; HCC 2998; HCT-116; HCT-15; HT-29; IGROV-1; K562; KM12; MDA-MB-231; NCI-H23; NCI/ADR-RES; OVCAR-8; PC-3; RXF 393; SF-268; SF-295; SK-MEL-5; SW-620.
Experiment in all cases: inhibition of tumour cell growth, NCI panel, 48 h

This is an account of results in ChEMBL document CHEMBL1201862, “PubChem BioAssay data set” (2004).

SMILES strings stand for the structures.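 Exposure lasted 48 hours, with cells grown in 96-well plates and compounds tested at five concentrations. GI50 = concentration required for 50% inhibition of growth.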 Calls of active or inactive are those of the source. Rule as the data show it: active = GI50 up to about 1.1 µM and inactive = higher.

`Clc1ccc(-c2c(C3=NCCCN3)nnn2-c2ccc(Cl)cc2)cc1`: the GI50 is 29.4 µM (inactive) in the assay with A498; > 78.2 µM (inactive) in the assay with ACHN; 60.1 µM (inactive) in the assay with CAKI-1; 18.2 µM (inactive) in the assay with HCC 2998; 28.9 µM (inactive) in the assay on HCT-116; 75.5 µM with HCT-15. The GI50 is 21.3 µM (inactive) in the assay with HT-29; 56 µM (inactive) in the assay on IGROV-1; 20.9 µM (inactive) in the assay with K562; 57.4 µM (inactive) in the assay with KM12; > 48.2 µM (inactive) with MDA-MB-231; > 79.1 µM (inactive) in the assay on NCI-H23. Further, the GI50 in the assay on NCI/ADR-RES was > 50.6 µM (inactive); in the assay with OVCAR-8, > 70.3 µM (inactive); in the assay on PC-3, 31.1 µM (inactive); in the assay on RXF 393, 17.7 µM (inactive); in the assay with SF-268 it was 48.8 µM (inactive); with SF-295, 34.7 µM (inactive). The GI50 with SK-MEL-5 is 17.7 µM (inactive); in the assay with SW-620, 49.8 µM (inactive).

Consider `O=C1C(Cl)=CC2(C=C1Cl)CCNC1=C2C(=O)c2nc[nH]c2C1=O`, for which the GI50 in the assay with A498 is 36.6 µM (inactive); in the assay on ACHN, > 100 µM (inactive); with CAKI-1, 64.4 µM (inactive); with HCC 2998, 39.4 µM (inactive); with HCT-116, 26 µM (inactive); in the assay on HCT-15 it was 46 µM. Further, the GI50 with HT-29 is 29.6 µM (inactive); in the assay on IGROV-1 it was 47.1 µM (inactive); in the assay on K562 it was 29.4 µM (inactive); with KM12, 43.4 µM (inactive); with MDA-MB-231, 35.6 µM (inactive); with NCI-H23, 27.2 µM (inactive). Also, the GI50 in the assay on NCI/ADR-RES is > 100 µM (inactive); in the assay on OVCAR-8 it was 32.9 µM (inactive); with PC-3 it was 35.3 µM (inactive); in the assay on RXF 393 it was 23.2 µM (inactive); in the assay on SF-268 it was 54.6 µM (inactive); in the assay with SF-295, > 100 µM (inactive). The GI50 was 16.6 µM (inactive) in the assay with SK-MEL-5 and 26.9 µM (inactive) in the assay with SW-620.

As to `COc1ccc(C=C2C(C)=NN(c3cccc(Cl)c3)C23C(Cl)C(=O)N3c2nc3ccccc3s2)cc1` (stereo not given), the GI50 in the assay on A498 is 18.5 µM (inactive); in the assay on ACHN it was 21.5 µM (inactive); in the assay with CAKI-1, 23.2 µM (inactive); with HCC 2998, 3 µM (inactive); in the assay on HCT-116, 15.5 µM (inactive); in the assay on HCT-15, 16.8 µM. The GI50 in the assay on HT-29 is 9.51 µM (inactive); in the assay with IGROV-1, 16.4 µM (inactive); with K562 it was 22.8 µM (inactive); in the assay on KM12, 13.6 µM (inactive); in the assay on MDA-MB-231 it was 12.9 µM (inactive); in the assay with NCI-H23, 15 µM (inactive). In addition, the GI50 with NCI/ADR-RES was 20.3 µM (inactive); in the assay on OVCAR-8 it was 18.9 µM (inactive); with PC-3 it was 17.2 µM (inactive); in the assay with RXF 393, 12.7 µM (inactive); with SF-268, 4.89 µM (inactive); with SF-295, 22.1 µM (inactive). For the same compound, the GI50 with SK-MEL-5 is 15.1 µM (inactive); in the assay with SW-620, 5.6 µM (inactive).

As for `C=CCOc1ccc(C2(c3ccc(OCC=C)cc3)C(=O)Nc3ccccc32)cc1`, the GI50 in the assay with A498 is > 10 µM (inactive); in the assay on ACHN, > 10 µM (inactive); in the assay with CAKI-1, > 10 µM (inactive); in the assay on HCC 2998 it was > 10 µM (inactive); in the assay with HCT-116 it was > 10 µM (inactive); in the assay on HCT-15, above 10 µM. Also, the GI50 in the assay with HT-29, with IGROV-1, in the assay on K562, in the assay with KM12, in the assay on MDA-MB-231 and in the assay with NCI-H23 was > 10 µM (inactive) each time. Moreover, the GI50 in the assay on NCI/ADR-RES, in the assay with OVCAR-8, in the assay with PC-3, in the assay with RXF 393, in the assay on SF-268 and in the assay with SF-295 was > 10 µM (inactive) each time. Also, the GI50 in the assay on SK-MEL-5 and with SW-620 was > 10 µM (inactive) in each case.

On to `CSc1ccc2c(cc1=O)[C@@H](NC(=O)c1ccc([N+](=O)[O-])cc1)CCc1cc(O)c(O)c(O)c1-2`, for which the GI50 is > 100 µM (inactive) in the assay with A498; 29.7 µM (inactive) with ACHN; 21.6 µM (inactive) in the assay on CAKI-1; > 100 µM (inactive) in the assay with HCC 2998; 34.8 µM (inactive) in the assay with HCT-116; 30.4 µM with HCT-15. The GI50 in the assay on HT-29 was 17.8 µM (inactive); with IGROV-1, 35.4 µM (inactive); in the assay with K562, 18.4 µM (inactive); in the assay with KM12, 17.7 µM (inactive); with MDA-MB-231 it was 28.2 µM (inactive); with NCI-H23, 45.3 µM (inactive). Also, the GI50 is 17.4 µM (inactive) in the assay with NCI/ADR-RES; 32.1 µM (inactive) in the assay with OVCAR-8; > 100 µM (inactive) in the assay with PC-3; > 100 µM (inactive) in the assay on RXF 393; 59 µM (inactive) with SF-268; 32.8 µM (inactive) in the assay with SF-295. The GI50 in the assay on SK-MEL-5 is 18.7 µM (inactive); in the assay with SW-620, 43.6 µM (inactive).

Regarding `NCCNCCNc1ccc(NCCNCCN)c2c1C(=O)c1c(O)ccc(O)c1C2=O`, the GI50 in the assay on A498 was 70 µM (inactive); with ACHN, > 100 µM (inactive); in the assay on CAKI-1 it was > 100 µM (inactive); in the assay on HCC 2998, > 100 µM (inactive); in the assay with HCT-116, > 100 µM (inactive); in the assay on HCT-15, above 100 µM. Also, the GI50 with HT-29, in the assay with IGROV-1, in the assay on K562, in the assay with KM12, with MDA-MB-231 and in the assay on NCI-H23 was > 100 µM (inactive) each time. The GI50 was > 100 µM (inactive) in the assay with NCI/ADR-RES; > 100 µM (inactive) with OVCAR-8; > 100 µM (inactive) in the assay with PC-3; > 100 µM (inactive) in the assay with RXF 393; > 100 µM (inactive) in the assay with SF-268; 99.3 µM (inactive) with SF-295. The GI50 in the assay with SK-MEL-5 and with SW-620 was > 100 µM (inactive) each time.

For the compound `c1ccc2c3c(c(N4CCNCC4)nc2c1)CCCC3`, the GI50 is 14.5 µM (inactive) with A498; 14.5 µM (inactive) in the assay with ACHN; 9.25 µM (inactive) with CAKI-1; 1.95 µM (inactive) in the assay on HCC 2998; 14.1 µM (inactive) with HCT-116; 15.8 µM in the assay with HCT-15. Besides, the GI50 was 14.2 µM (inactive) with HT-29; 12.4 µM (inactive) in the assay with IGROV-1; 5.5 µM (inactive) in the assay with K562; 17.2 µM (inactive) in the assay with KM12; 14.3 µM (inactive) in the assay with MDA-MB-231; 14.6 µM (inactive) with NCI-H23. Further, the GI50 in the assay with NCI/ADR-RES is 14.1 µM (inactive); with OVCAR-8, 15.5 µM (inactive); with PC-3, 13 µM (inactive); with RXF 393 it was 10.4 µM (inactive); in the assay with SF-268 it was 15.2 µM (inactive); in the assay on SF-295, 21.6 µM (inactive). Also, the GI50 in the assay with SK-MEL-5 is 12 µM (inactive); in the assay on SW-620 it was 17 µM (inactive).
